Measured values published in US11524938B2, “Aromatic sulfonamide derivatives” (Bayer Pharma Aktiengesellschaft, priority 2016, dated 2022).

Biological target: T1, human P2X4 (Homo sapiens, UniProt Q99571)
T1 sequence (Q99571 1-388): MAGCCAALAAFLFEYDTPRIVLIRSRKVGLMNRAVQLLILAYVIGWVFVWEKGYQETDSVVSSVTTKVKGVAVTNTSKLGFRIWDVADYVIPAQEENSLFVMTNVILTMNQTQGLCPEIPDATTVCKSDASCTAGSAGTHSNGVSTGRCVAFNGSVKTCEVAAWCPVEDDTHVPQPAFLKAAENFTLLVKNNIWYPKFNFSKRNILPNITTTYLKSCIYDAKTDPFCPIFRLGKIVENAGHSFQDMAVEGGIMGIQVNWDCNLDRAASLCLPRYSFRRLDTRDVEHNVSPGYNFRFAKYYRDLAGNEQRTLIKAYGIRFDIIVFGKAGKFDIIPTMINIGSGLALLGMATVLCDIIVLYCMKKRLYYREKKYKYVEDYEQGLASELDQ
Assay: Human P2X4 HEK Cell FLIPR Assay
Type: cell-based
Conditions: agonist Bz-ATP at EC80; for Emax: HEK293, HEK293 cells, percentage of maximal inhibition, read-out: Human P2X4 HEK Cells (FLIPR Assay) avg Efficacy [%]; for IC50: HEK293 cells, individual values listed where some fall outside detection range
Outline: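 Calcium flux read by FLIPR for 120 sec after Bz-ATP challenge at EC80 (established each assay day), following 30 min room-temperature compound preincubation in dye-loaded stable human P2X4 HEK293 cells. Peak RFU over basal normalized to agonist control; IC50, maximal inhibition and Hill coefficient from triplicate means.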

SMILES	Emax	IC50
NS(=O)(=O)c1cc(NC(=O)Cc2ccccc2Cl)ccc1-n1cc(NC(=O)C2CC2)cn1 [Example 400, N-[1-(4-{[(2-Chlorophenyl)acetyl]amino}-2-sulfamoylphenyl)-1H-pyrazol-4-yl]cyclopropanecarboxamide]	88%	87 nM
NS(=O)(=O)c1cc(NC(=O)Cc2cc(Br)ccc2Cl)ccc1-n1cc(C(F)(F)F)cn1 [Example 245, 2-(5-Bromo-2-chlorophenyl)-N-{3-sulfamoyl-4-[4-(trifluoromethyl)-1H-pyrazol-1-yl]phenyl}acetamide]	88%	474 nM
COc1ccc(CC(=O)Nc2ccc(-n3cc(C(F)(F)F)cn3)c(S(N)(=O)=O)c2)c(Cl)c1 [Example 135, 2-(2-Chloro-4-methoxyphenyl)-N-{3-sulfamoyl-4-[4-(trifluoromethyl)-1H-pyrazol-1-yl]phenyl}acetamide]	90%	73 nM
NS(=O)(=O)c1cc(NC(=O)Cc2ccccc2F)ccc1-n1cc(F)cn1 [Example 48, 2-(2-Fluorophenyl)-N-[4-(4-fluoro-1H-pyrazol-1-yl)-3-sulfamoylphenyl]acetamide]	82%	297 nM
Cc1cn(-c2ccc(NC(=O)Cc3ccccc3Cl)cc2S(N)(=O)=O)nc1C(F)(F)F [Example 14, 2-(2-Chlorophenyl)-N-{4-[4-methyl-3-(trifluoromethyl)-1H-pyrazol-1-yl]-3-sulfamoylphenyl}acetamide]	26%	> 25000 nM
NS(=O)(=O)c1cc(NC(=O)Cc2c(Cl)cccc2Cl)ccc1-n1cc(F)cn1 [Example 179, 2-(2,6-Dichlorophenyl)-N-[4-(4-fluoro-1H-pyrazol-1-yl)-3-sulfamoylphenyl]acetamide]	89%	35 nM
NS(=O)(=O)c1cc(NC(=O)Cc2ccccc2Cl)ccc1-n1cc(CNCC(F)F)cn1 [Example 260, 2-(2-Chlorophenyl)-N-[4-(4-{[(2,2-difluoroethyl)amino]methyl}-1H-pyrazol-1-yl)-3-sulfamoylphenyl]acetamide]	100%	398 nM
NS(=O)(=O)c1cc(NC(=O)Cc2cccc(C(F)(F)F)c2Cl)ccc1-n1cc(F)cn1 [Example 162, 2-[2-Chloro-3-(trifluoromethyl)phenyl]-N-[4-(4-fluoro-1H-pyrazol-1-yl)-3-sulfamoyl-phenyl]acetamide]	92%	19 nM
NS(=O)(=O)c1cc(NC(=O)Cc2ccccc2F)cnc1-n1cc(F)cn1 [Example 384, 2-(2-Fluorophenyl)-N-[6-(4-fluoro-1H-pyrazol-1-yl)-5-sulfamoylpyridin-3-yl]acetamide]	81%	524 nM
NS(=O)(=O)c1cc(NC(=O)Cc2ccccc2Cl)ccc1-n1cc2ncccc2n1 [Example 255, 2-(2-Chlorophenyl)-N-[4-(2H-pyrazolo[4,3-b]pyridin-2-yl)-3-sulfamoylphenyl]-acetamide]	81%	25 nM
NS(=O)(=O)c1cc(NC(=O)Cc2ccc(Cl)cc2Cl)ccc1-n1cc(Cl)cn1 [Example 79, N-[4-(4-Chloro-1H-pyrazol-1-yl)-3-sulfamoylphenyl]-2-(2,4-dichlorophenyl)acetamide]	78%	2030 nM
NC(=O)c1cnn(-c2ccc(NC(=O)Cc3ccccc3Cl)cc2S(N)(=O)=O)c1 [Example 553, 1-(4-{[(2-Chlorophenyl)acetyl]amino}-2-sulfamoylphenyl)-1H-pyrazole-4-carboxamide]	82%	5 nM
NS(=O)(=O)c1cc(NC(=O)Cc2ccccc2Br)ccc1-c1ccc(Cl)nc1 [Example 467, 2-(2-Bromophenyl)-N-[4-(6-chloropyridin-3-yl)-3-sulfamoylphenyl]acetamide]	93%	9 nM
CCOC(=O)c1cnn(-c2ccc(NC(=O)Cc3ccccc3Cl)cc2S(N)(=O)=O)c1 [Example 235, Ethyl 1-(4-{[(2-chlorophenyl)acetyl]amino}-2-sulfamoylphenyl)-1H-pyrazole-4-carboxylate]	35%	> 25000 nM
CC(C)(O)c1nc(-c2ccc(NC(=O)Cc3ccccc3Cl)cc2S(N)(=O)=O)cs1 [Example 436, 2-(2-Chlorophenyl)-N-{4-[2-(2-hydroxypropan-2-yl)-1,3-thiazol-4-yl]-3-sulfamoylphenyl}acetamide]	56%	12500 nM
NS(=O)(=O)c1cc(NC(=O)Cc2ccccc2C(F)(F)F)ccc1-n1cc(Cl)cn1 [Example 234, N-[4-(4-Chloro-1H-pyrazol-1-yl)-3-sulfamoylphenyl]-2-[2-(trifluoromethyl)-phenyl]acetamide]	96%	93 nM
Cc1ccc(CC(=O)Nc2ccc(-c3cncc(F)c3)c(S(N)(=O)=O)c2)c(F)c1 [Example 476, 2-(2-Fluoro-4-methylphenyl)-N-[4-(5-fluoropyridin-3-yl)-3-sulfamoylphenyl]acetamide]	89%	58 nM
NS(=O)(=O)c1cc(NC(=O)Cc2ccccc2Cl)ccc1-c1cnc(C(F)F)s1 [Example 429, 2-(2-Chlorophenyl)-N-{4-[2-(difluoromethyl)-1,3-thiazol-5-yl]-3-sulfamoylphenyl}acetamide]	91%	108 nM
Cc1cccc(CC(=O)Nc2ccc(-n3cc(C#N)cn3)c(S(N)(=O)=O)c2)c1 [Example 198, N-[4-(4-Cyano-1H-pyrazol-1-yl)-3-sulfamoylphenyl]-2-(3-methylphenyl)acetamide]	94%	136 nM
NS(=O)(=O)c1cc(NC(=O)Cc2ccccc2Cl)ccc1-n1cnc(C2CCC2)n1 [Example 231, 2-(2-Chlorophenyl)-N-[4-(3-cyclobutyl-1H-1,2,4-triazol-1-yl)-3-sulfamoylphenyl]-acetamide]	81%	51 nM
NS(=O)(=O)c1cc(NC(=O)Cc2ccncc2Cl)ccc1-n1cc(Br)cn1 [Example 72, N-[4-(4-Bromo-1H-pyrazol-1-yl)-3-sulfamoylphenyl]-2-(3-chloropyridin-4-yl)acetamide]	96%	576 nM
CC(C)Oc1cccc(-c2ccc(NC(=O)Cc3ccccc3Cl)cc2S(N)(=O)=O)c1F [Example 330, 2-(2-Chlorophenyl)-N-[2′-fluoro-3′-(propan-2-yloxy)-2-sulfamoylbiphenyl-4-yl]-acetamide]	101%	14 nM
NS(=O)(=O)c1cc(NC(=O)Cc2ccc(F)cc2Cl)ccc1-n1cc(Br)cn1 [Example 68, N-[4-(4-Bromo-1H-pyrazol-1-yl)-3-sulfamoylphenyl]-2-(2-chloro-4-fluorophenyl)-acetamide]	75%	128 nM
NS(=O)(=O)c1cc(NC(=O)Cc2ccccc2Cl)ccc1-c1cnn(CCO)c1 [Example 291, 2-(2-Chlorophenyl)-N-{4-[1-(2-hydroxyethyl)-1H-pyrazol-4-yl]-3-sulfamoylphenyl}acetamide]	95%	100 nM
NS(=O)(=O)c1cc(NC(=O)Cc2ccc(Cl)cc2Cl)ccc1-c1cncc(F)c1 [Example 475, 2-(2,4-Dichlorophenyl)-N-[4-(5-fluoropyridin-3-yl)-3-sulfamoylphenyl]acetamide]	88%	64 nM
NS(=O)(=O)c1cc(NC(=O)Cc2ccccc2Cl)ccc1-c1cnn(Cc2ccccc2)c1 [Example 293, N-[4-(1-Benzyl-1H-pyrazol-4-yl)-3-sulfamoylphenyl]-2-(2-chlorophenyl)acetamide]	75%	76 nM
